Measured values reported in patent US9603928B2, “Medicinal composition for promoting synthesis of protoporphyrin IX” (SBI Pharmaceuticals Co., Ltd., priority 2013, dated 2017).

Key:
Type in all cases: cell-based
[1] = tested on: Multi-drug resistant Pseudomonas aeruginosa (MDRP: ATCC BAA-2110); assay: HPLC measurement of coproporphyrinogen III (CPIII) and protoporphyrin IX (PpIX) in MDRP cultured with ALA / ALA + EDTA; conditions: 4 hours after start of culture, ALA 0.5 mg/ml, EDTA 400 mg/ml where added
Method: Multi-drug resistant Pseudomonas aeruginosa (MDRP: ATCC BAA-2110) was placed in tryptic soy broth medium (TBS: from DIFCO), and cultured at 37° C. for 24 hours. With an absorptiometer, the TBS medium comprising the cultured MDRP was adjusted to 1×10^9 CFU (Colony forming unit)/ml. In a 12-well plate, the following solutions (1)-(3) were each prepared and cultured. (1): TBS medium comprising MDRP adjusted to 1×10^9 CFU/ml, (2): a solution of (1) and ALA added to a final concentration of 0.5 mg/ml, and (3): a solution of (1) and ALA added to a final concentration of 0.5 mg/ml and EDTA added to a final concentration of 400 mg/ml. The solutions were collected 4 hours after the start of culture, and suspended in 0.25 ml of PBS per 1 g of the pelleted bacteria. To 0.2 ml of the suspension, 0.01 ml of 50% acetic acid and 0.9 ml of DMF/IPA (100:1) were added, vortexed, and separated by centrifugation (14, 000 rpm, 5 min, 4° C.). The concentrations of coproporphyrinogen III (CPIII) and protoporphyrin IX (PpIX) in the supernatant after centrifugal separation were measured with HPLC.

[2] = tested on: Multi-drug resistant Pseudomonas aeruginosa (MDRP: ATCC BAA-2110); assay: Number of MDRP bacteria after ALA + EDTA with or without PDT (LED 410 nm); conditions: no PDT, 18 hours of culture, ALA 1 mg/ml, EDTA 400 mg/ml where added, start 1×10^9 CFU/ml
Method: Multi-drug resistant Pseudomonas aeruginosa (MDRP: ATCC BAA-2110) was cultured for 24 hours at 37° C. with tryptic soy broth medium (TBS: from DIFCO). Then, the TBS medium comprising MDRP at 1×10^9 CFU/ml was dispensed in a 12-well plate at 1 ml per well, and ALA was added to a final concentration of 1 mg/ml and EDTA was added to a final concentration of 400 mg/ml. These were divided into the group subjected to PDT (PDT group) and the group not subjected to PDT (non-PDT group) (each n=1). For the control group, only ALA at a final concentration of 1 mg/ml was added to 1 ml of the TBS medium comprising MDRP at 1×10^9 CFU/ml, and PDT was not carried out. The control group and the non-PDT group were cultured for 18 hours, and the number of bacteria in each well was counted. The PDT group was cultured for 18 hours, irradiated with LED (410 nm) at 50 J/cm^2, and then the number of bacteria was counted.

[3] = tested on: Multi-drug resistant Pseudomonas aeruginosa (MDRP: BAA-2110); assay: Number of MDRP bacteria after ALA + chelating agent other than EDTA with or without LED irradiation (PDT); conditions: Irradiation No, average values
Method: Multi-drug resistant Pseudomonas aeruginosa (MDRP: BAA-2110) was cultured in tryptic soy broth medium (TBS: from DIFCO) for 24 hours at 37° C. Next, the TBS medium comprising MDRP was dispensed in a 12-well dish at 1 ml per well (1×10^4−2×10^5 CFU/mL). ALA at a final concentration of 1 mg/ml and a chelating agent other than EDTA (2.5 mg/mL of citric acid, 2.5 mg/mL of malic acid, 1 mg/mL of diethylenetriaminepentaacetic acid (DTPA), 1 mg/mL of triethylenetetramine-N,N,N′,N″,N′″,N″′-hexaacetic acid, 1 mg/mL of N-(2-hydroxyethyl) iminodiacetic acid, and 1 mg/mL of deferoxamine mesylate, each at final concentration) were added to each dish. For the control group, only ALA at a final concentration of 1 mg/ml was added to 1 ml of the TBS medium comprising MDRP. Next, these were cultured for 5 hours, and the number of bacteria in each well was counted. The PDT group was cultured for 5 hours, and then irradiated with LED (410 nm) at 50 J/cm^2, after which the number of bacteria was counted, and further the number of bacteria at 19 hours after irradiation was also counted.

[4] = supernatant of bacterial extract, HPLC

NCC(=O)CCC(=O)O [ALA, 5-aminolevulinic acid]
proportion of PpIX against CPIII [1]: approximately 5.5%
CPIII [1, 4]: 889.6 nM
PpIX [1, 4]: 49.0 nM
Bacterial count (CFU/ml) ([2]; listed as Control): 4.2 × 10^9 CFU/ml
Bacterial count (CFU/ml) ([2]; listed as control): 4.2×10^9 CFU/ml
5 hours after addition of ALA + chelating agent (CFU/mL) ([3]; ALA 1 mg/ml): 3.6 × 10^5 CFU/mL
19 hours after irradiation (CFU/mL) ([3]; ALA 1 mg/ml): 1.4 × 10^9 CFU/mL
At the time of culture (CFU/mL) ([3]; starting count): 5.7 × 10^4 CFU/mL
